The source of these data is article PMC6745035, “Novel tetrahydroacridine derivatives with iodobenzoic moieties induce G0/G1 cell cycle arrest and apoptosis in A549 non-small lung cancer and HT-29 colorectal cancer cells” (Molecular and Cellular Biochemistry, 2019).

Holding throughout (format): cell-based, human
Assay [1] relates to A549 cells. In words: MTT cytotoxicity assay, A549. The conditions noted are these: Homo sapiens, A549; MTT, 24 h incubation; read-out: IC50 µM ± SD against A549. The source says: A549 cell line (lung carcinoma from human) (European Collection of Cell Culture) and HT-29 cell line (colorectal adenocarcinoma from human) (American Type Culture Collection) were chosen to evaluate the cytotoxicity of novel compounds.
The MTT assay was used to evaluate cell metabolic activity. The test principle is based on the determination of cell viability by measuring the metabolic activity in mitochondria. Enzymatically active mitochondria reduce the water-soluble MTT (3-(4,5-dimethylthiazol-2-yl)-2,5 diphenyltetrazoliumbromide) to blue–violet insoluble formazan. The number of viability cells is proportional to the colour intensity determined by photometric measurements (an analytical wavelength 570 nm) after dissolving the formazan in Dimethylsulfoxide (DMSO) (Serva) and Sorensen’s glycine buffer. MTT (Sigma Aldrich) was dissolved in Phosphate Buffered Saline (PBS) (PAN-Biotech) at a concentration of 0.5 mg/mL. Sorensen’s glycine buffer is made of 0.1 M glycine and 0.1 M NaCl, at pH 10.5. Studied compounds were dissolved in DMSO in order to receive stock solutions.
For the assay, cells were seeded into 96-well plates at density 10^4 cells per well and cultured for 24 h at 37 °C and 5% CO2. Then medium was removed, and cells were exposed to the 100 µL of the compound solutions over a range of concentrations (final DMSO concentration was below 0.2%) or nothing but culture medium (blank control). Pure DMSO was used as a positive control. After 24 h of incubation with the compound solutions, medium was removed and 50 µL of the MTT solution was added to each well and incubated in the dark for additional 2 h at 37 °C. Then the MTT solution was carefully removed and 100 µL of DMSO was added. Plates were incubated for 10 min at room temperature. Finally, 5 µL of Sorensen Buffer was added to each well. Plate was swayed, and the absorbance was measured by using microplate reader (Synergy H1, BioTek, Winooski, VT, USA) at a wavelength of 570 nm. The cell viability was expressed as a percentage of the control values (blank). The experiments were done in triplicate.
On the technique in general: Tetrazolium assays rely on reduction of a dye to a coloured formazan, in cell work by metabolically active cells.

In the next assay the test system is PARP-1. In words: Western blot of PARP-1 cleavage, HT-29. Conditions: HT-29, 24 h, IC50 and 1/2IC50. The method, then: (§1) Then, cells were treated with chosen compounds. After 24 h of incubation, monolayer and supernatant were harvested and washed in cold PBS. Cells were centrifuged—monolayer at 1200 rpm for 10 min, supernatant 3500 rpm for 10 min. Pellets were dissolved in RIPA Lysis and Extraction buffer (Bio-Rad) containing Phosphatase Inhibitor Cocktail 3 (Sigma Aldrich) and Protease Inhibitor Cocktail (Sigma Aldrich). Samples were incubated in ice for 30 min and mixed every 10 min. Then, samples were centrifuged at 12,000 rpm for 25 min. Protein concentration in supernatants was measured in triplicate using a Protein Assay (Bio-Rad). Proteins were separated by SDS–polyacrylamide gel electrophoresis. Separating and stacking gels were made of different ratios of water, Tris–HCl pH 6.8 and pH 8.8, 10% SDS (Sigma Aldrich), Acrylamide/bis-acrylamide (Sigma Aldrich), 10% APS (Sigma Aldrich), TEMED (Sigma Aldrich). 7.5% gels were prepared for analysis PARP-1, whereas 12% gels prepared for γ-H2AX. After separation on SDS–polyacrylamide gels, proteins were electroblotted on nitrocellulose membrane in Transfer Buffer (Glycine, Tris, Methanol). Membranes were washed in TBS/0.1% or 0.05% Tween20 solution and blocked in Tris-buffered saline with 5% of non-fated dried milk for 1 h. Membranes were then incubated overnight with primary antibodies—anti-PARP-1 (Cell Signaling Technology), anti-γ-H2A.X (Cell Signaling Technology), anti-β-actin (Cell Signaling Technology) in cold room (6 °C). After incubation, membranes well washed with TBS/Tween solution and blocked with and horseradish peroxidase-conjugated secondary antibodies (Bio-Rad) for 1 h in cold room. Protein bands were visualized using ECL™ Prime Western Blotting Detection Reagents (Sigma Aldrich) Healthcare and Carestream Kodak autoradiography GBX fixer/replenisher (Sigma Aldrich) with Developer and Replenisher (Carestream) in the dark room. Results were obtained on Autoradiography Film (Santa Cruz Biotechnology). Densitometric analysis was performed by using a software program (ImageJ). […]
On the technique in general: In western blotting, separated proteins are transferred to a membrane and probed.

Assay [2] has as its system γ-H2AX. In words: Western blot of γ-H2AX, HT-29. Conditions: HT-29, 24 h, IC50 and 1/2IC50. The method, then:
as §1

Another assay relates to SH-SY5Y cells. In words: Cytoprotection against rotenone/oligomycin A, pre-incubation, MTT.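 As to Cytoprotection: Toxic mixture Rotenone 30 µM plus Oligomycin A 10 µM.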 The conditions noted are these: for Cytoprotection: pre-incubation with rotenone/oligomycin A; for Cytoprotective properties in the pre-incubation assay (in words): rotenone/oligomycin A, range of concentration 1–0.001 µM. The method, then:
Rotenone with oligomycin A (R/O) were taken to induce mitochondrial ROS by blocking of complexes I and V of the mitochondrial electron transport chain. It causes free radical production and blockade of ATP synthesis. In the pre-incubation experiment, it could be assessed whether the compounds have cytoprotective properties due to the activation of endogenous antioxidant pathways. In the co-incubation could be shown whether compounds are free-radical scavengers. MTT assay was a test of choice, because in this assay mitochondrial activity is measured. […] It can be determined whether novel compound would protect cells from both apoptotic and necrotic death resulting from the increase of intracellular ROS. In both experiments, trolox was used as a reference compound. […] After this time, toxic mixture was added, and cells were maintained for an additional 24 h in the presence of the compounds.

Another assay deals with HT-29 cells. In words: Reactive oxygen species assay (DCFH-DA), HT-29. Conditions: compound at IC50 24 h plus H2O2, H2O2 only 1.88-fold. The method, then:
After incubation, compounds were added into the wells and further incubated for next 24 h. H2O2 (1 mM) was added at 22nd h of incubation with compounds. H2O2 was used as a positive control. 30 min before the analysis, DCFH-DA (20 µM) was added to the wells. After incubation, cells were harvested and washed in PBS. Then, cells were centrifuged at 1500 rpm for 10 min. Medium was removed and cells were suspended in PBS. Analysis was performed on BD Accuri C6 Flow Cytometry (Becton–Dickinson).

The test system of assay [3] is A549 cells. In words: Apoptosis assay by annexin-V/PI double staining, A549. The conditions noted are these: A549, 24 h, compound at 2xIC50 (1i 29.74 µM); control 7.80%. As for the experimental part:
Compounds were added to the cells and further incubated for 24 h. After treatment, monolayer and supernatant cells were harvested, washed with PBS and centrifuged (monolayer at 1200 rpm for 10 min, supernatant at 3500 rpm for 10 min). Then, cells were re-suspended in binding buffer and stained with 2 µL of Annexin-V and […] of PI (ANNEXIN-V—FITC Apoptosis Detection Kit, Immunostep) in the dark for 10 min at room temperature. Cells were analysed by BD Accuri C6 Flow Cytometry (Becton–Dickinson). Etoposide (Calbiochem) was used as a reference drug. Experiments were done in triplicates.

The test system of assay [4] is γ-H2AX. In words: Western blot of γ-H2AX, A549. The conditions noted are these: A549, 24 h, IC50 and 1/2IC50. As for the experimental part: as §1
In assay [5] the test system is A549 cells. In words: Colony forming assay, A549. The source says: The plates were placed on ice.

Each structure is given as a SMILES string.

As a reminder, the IC50 is the concentration that inhibits the measured activity by half.

As for `O=C(NCCCCNc1c2c(nc3ccccc13)CCCC2)c1ccccc1I` [Compound 1c], the IC50 in the assay on A549 cells [1] came out at 59.1 ± 5.86 µM. Further, the “Cleaved PARP-1 (89 kDa) level (in words)” value with PARP-1 was “lower apoptosis at IC50 concentrations”. In addition, the “γ-H2AX protein level / DNA damage (in words)” value with γ-H2AX [2] is recorded as “lowest effect on DNA damage”. Also, the Cytoprotection with SH-SY5Y cells (0.001 µM) was 32.91%; in the assay with SH-SY5Y cells (0.01 µM), 37.05%; with SH-SY5Y cells (0.1 µM), 33.15%; in the assay on SH-SY5Y cells (1 µM), 33.92%. Also, the “Cytoprotective properties in the pre-incubation assay (in words)” value (from here on “Cytoprotective properties”) in the assay on SH-SY5Y cells is recorded as “showed their action against oxidative stress in the whole range of concentrations”. Also, in the assay with HT-29 cells, the “Increase in ROS level (DCF fluorescence) in comparison with non-treated control” value worked out at 1.83 fold.
Regarding `O=C(NCCCNc1c2c(nc3ccccc13)CCCC2)c1cccc(I)c1` [Compound 1e], the IC50 in the assay with A549 cells [1] turned out to be 23.5 ± 2.6 µM. This molecule also displayed a Total apoptotic cells in the assay on A549 cells [3] of 44.96%. In addition, the “γ-H2AX protein level / DNA damage (in words)” value in the assay with γ-H2AX [4] is “strongest effect”. Besides, the Cytoprotection came out at 36.22% in the assay with SH-SY5Y cells (0.001 µM), 51.19% in the assay on SH-SY5Y cells (0.01 µM), 46.39% in the assay on SH-SY5Y cells (0.1 µM) and 24.79% in the assay with SH-SY5Y cells (1 µM). The “Cytoprotective properties” value in the assay on SH-SY5Y cells is reported as “showed their action against oxidative stress in the whole range of concentrations”.
Turning to `O=C(NCCCCNc1c2c(nc3ccccc13)CCCC2)c1ccc(I)cc1` [Compound 1i], the half-inhibitory concentration (IC50) with A549 cells [1] turned out to be 14.9 ± 1.06 µM. Besides, the “Number of colonies expressed as percent of control number” value with A549 cells [5] (compound at 1/2IC50) worked out at 39.47%; in the assay on A549 cells [5] (compound at 2xIC50) it was 0%; in the assay with A549 cells [5] (compound at IC50), 4.70%. Moreover, the Total apoptotic cells in the assay on A549 cells [3] turned out to be 71.98%. Moreover, the “Cleaved PARP-1 (89 kDa) level (in words)” value in the assay with PARP-1 is “highest PARP-1 cleavage”. Besides, the figures for the “γ-H2AX protein level / DNA damage (in words)” value with γ-H2AX [4] and with γ-H2AX [2] were “higher ability to damage DNA at 1/2IC50 concentration (7.44 µM) than at IC50 concentration (14.87 µM)” and “strongest H2AX phosphorylation”, respectively. The “Cytoprotective properties” value in the assay with SH-SY5Y cells was “did not show cytoprotective properties”. The “Increase in ROS level (DCF fluorescence) in comparison with non-treated control” value in the assay on HT-29 cells worked out at 1.85 fold.
Regarding `O=C(NCCCNc1c2c(nc3ccccc13)CCCC2)c1ccccc1I` [Compound 1b], in the assay with A549 cells [1], the concentration for half-maximal inhibition (IC50) worked out at 32.5 ± 2.25 µM. For the same molecule, in the assay with A549 cells [5] (compound at 2xIC50), the “Number of colonies expressed as percent of control number” value was found to be 3.55%. Also, in the assay with A549 cells [3], the Total apoptotic cells is 45.31%. Further, the “γ-H2AX protein level / DNA damage (in words)” value with γ-H2AX [4] was “slightly lower”. The “Cytoprotective properties” value in the assay on SH-SY5Y cells is listed as “did not show cytoprotective properties”.
